# US6451813B1, “Treatment of gastroparesis in certain patient groups” (R. T. Alamo Ventures I, LLC, priority 2001, dated 2002)
# Legend:
# [1] = Solubility of flosequinan; type: physicochemical; conditions: water; organic solvents
# Text: Thus, while the present invention is not limited by the form of oral administration, aqueous and organic solution of flosequinan for oral administration is contemplated. Likewise, flosequinan can be associated with a solid pharmaceutical carrier for solid oral administration (i.e., in pill form).
# [2] = tested on: PDE1 partially purified from bovine heart; test: PDE1 biochemical enzyme assay ([3H]cAMP hydrolysis); conditions: 100 μM; for % Inhibition of PDE1: Example 3
# Method: In this example, a racemic mixture of flosequinan and the (+) and (−) enantiomers of flosequinan were subjected to biochemical enzyme assays to determine their respective percent inhibition of a variety of phosphodiesterases (PDE1-PDE6). The reaction conditions for each PDE assay were as follows. PDE1: PDE1 partially purified from bovine heart was used. A racemic mixture of flosequinan, and each enantiomer of flosequinan, all at a molar concentration of 100 μM, were independently incubated with 13 μg PDE1 enzyme, 1.0 μM [^3H]cAMP and CaCl2/calmodulin in Tris buffer pH 7.5 for 20 minutes at 30° C. The reaction was terminated by boiling for 2 minutes, and the resulting AMP was converted to adenosine by addition of 10 mg/ml snake venom nucleotidase and further incubation at 30° C. for 10 minutes. Unhydrolyzed cAMP was bound to AGI-X2 resin, and the remaining [^3H]adenosine in the aqueous phase was quantitated by scintillation counting.
# [3] = cited from earlier work
# [4] = molecular target: T1, PDE6 partially purified from bovine retinal rod and activated by trypsin (Bos taurus, UniProt P11541+P23439); test: PDE6 biochemical enzyme assay ([3H]cGMP hydrolysis); conditions: Example 1; versus Viagra 0.3 μM
# T1 construct: from tissue; host or cells: bovine retinal rod
# T1 sequence (P11541 2-856 limits assumed): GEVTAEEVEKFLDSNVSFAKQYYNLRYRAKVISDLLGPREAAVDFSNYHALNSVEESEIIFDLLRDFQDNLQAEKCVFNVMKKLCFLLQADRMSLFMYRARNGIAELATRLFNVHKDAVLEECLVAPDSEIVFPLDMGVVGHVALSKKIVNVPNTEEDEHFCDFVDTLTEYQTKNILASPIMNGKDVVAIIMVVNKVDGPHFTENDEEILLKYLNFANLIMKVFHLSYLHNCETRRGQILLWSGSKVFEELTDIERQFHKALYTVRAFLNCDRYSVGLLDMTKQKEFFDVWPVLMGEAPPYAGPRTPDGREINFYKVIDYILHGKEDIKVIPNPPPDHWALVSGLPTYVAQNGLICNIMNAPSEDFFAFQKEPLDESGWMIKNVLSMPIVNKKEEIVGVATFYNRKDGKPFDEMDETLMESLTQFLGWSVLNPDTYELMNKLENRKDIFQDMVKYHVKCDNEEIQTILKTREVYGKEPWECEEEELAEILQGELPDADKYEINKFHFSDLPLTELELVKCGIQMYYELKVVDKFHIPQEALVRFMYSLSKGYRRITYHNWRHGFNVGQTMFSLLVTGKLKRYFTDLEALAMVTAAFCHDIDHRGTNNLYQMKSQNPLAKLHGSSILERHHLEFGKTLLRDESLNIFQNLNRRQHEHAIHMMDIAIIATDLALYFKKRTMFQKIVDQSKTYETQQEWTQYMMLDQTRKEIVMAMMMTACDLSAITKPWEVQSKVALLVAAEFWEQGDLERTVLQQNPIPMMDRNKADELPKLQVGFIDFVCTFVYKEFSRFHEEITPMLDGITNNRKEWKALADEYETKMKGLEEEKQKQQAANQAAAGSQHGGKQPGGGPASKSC
# T1 sequence (P23439 2-850 limits assumed): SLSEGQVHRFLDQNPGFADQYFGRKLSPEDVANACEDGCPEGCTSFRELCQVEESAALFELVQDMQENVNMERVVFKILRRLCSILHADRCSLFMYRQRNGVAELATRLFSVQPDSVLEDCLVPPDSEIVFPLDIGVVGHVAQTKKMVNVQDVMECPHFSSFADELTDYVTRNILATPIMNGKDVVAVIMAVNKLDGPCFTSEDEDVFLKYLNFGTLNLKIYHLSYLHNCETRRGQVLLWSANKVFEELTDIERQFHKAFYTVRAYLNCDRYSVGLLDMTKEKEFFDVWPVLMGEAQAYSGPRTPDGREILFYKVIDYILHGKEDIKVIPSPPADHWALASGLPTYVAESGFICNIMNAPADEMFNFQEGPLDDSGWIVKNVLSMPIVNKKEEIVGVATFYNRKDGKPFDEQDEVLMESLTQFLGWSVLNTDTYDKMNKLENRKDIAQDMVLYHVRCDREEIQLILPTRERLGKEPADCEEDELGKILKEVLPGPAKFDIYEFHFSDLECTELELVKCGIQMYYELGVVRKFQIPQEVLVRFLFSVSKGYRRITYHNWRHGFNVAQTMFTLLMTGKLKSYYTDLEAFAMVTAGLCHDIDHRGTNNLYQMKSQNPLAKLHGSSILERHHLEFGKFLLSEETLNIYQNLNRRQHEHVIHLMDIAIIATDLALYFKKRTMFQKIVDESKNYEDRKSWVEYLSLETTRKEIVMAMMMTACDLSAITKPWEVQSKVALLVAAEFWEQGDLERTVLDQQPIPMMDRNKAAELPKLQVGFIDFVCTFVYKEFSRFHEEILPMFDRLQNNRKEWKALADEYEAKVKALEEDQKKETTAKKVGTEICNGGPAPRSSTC
# Method: PDE6 partially purified from bovine retinal rod and activated by trypsin was used. […] Each reaction was terminated by raising the temperature to 100° C. for 2 minutes. The resulting GMP was converted to guanosine by addition of 10 mg/ml snake venom nucleotidase and further incubated at 30° C. for 10 minutes. Unhydrolyzed cGMP was bound to AGI-X2 resin, and [^3H]guanosine remaining in the aqueous phase was quantitated by scintillation counting.
# PDE6: PDE6 partially purified from bovine retinal rod and activated by trypsin was used. […] Each reaction was terminated by boiling for 2 minutes. The resulting GMP was converted to guanosine by addition of 10 mg/ml snake venom nucleotidase, and further incubated at 30° C. for 10 minutes. Unhydrolyzed cGMP was bound to AGI-X2 resin, and [^3H]guanosine remaining in the aqueous phase was quantitated by scintillation counting.
# [5] = molecular target: T2, PDE3 partially purified from human platelets (Homo sapiens, UniProt Q14432); test: PDE3 biochemical enzyme assay ([3H]cAMP hydrolysis); conditions: 100 μM
# T2 construct: PDE3 partially purified from human platelets was used; from tissue; host or cells: human platelets
# Method: PDE3: PDE3 partially purified from human platelets was used. A racemic mixture of flosequinan, and each enantiomer of flosequinan, all at a molar concentration of 100 μM, were independently incubated with 13 μg PDE3 enzyme and 1 μM cAMP containing 0.01 μM [^3H]cAMP in Tris buffer pH 7.5 for 20 minutes at 30° C. The reaction was terminated by boiling for 2 minutes, and the resulting AMP was converted to adenosine by addition of 10 mg/ml snake venom nucleotidase and further incubation at 30° C. for 10 minutes. Unhydrolyzed cAMP was bound to AGI-X2 resin, and the remaining [^3H]adenosine in the aqueous phase was quantitated by scintillation counting.
# [6] = following oral administration; cited from earlier work
# T2 sequence (Q14432 whole entry): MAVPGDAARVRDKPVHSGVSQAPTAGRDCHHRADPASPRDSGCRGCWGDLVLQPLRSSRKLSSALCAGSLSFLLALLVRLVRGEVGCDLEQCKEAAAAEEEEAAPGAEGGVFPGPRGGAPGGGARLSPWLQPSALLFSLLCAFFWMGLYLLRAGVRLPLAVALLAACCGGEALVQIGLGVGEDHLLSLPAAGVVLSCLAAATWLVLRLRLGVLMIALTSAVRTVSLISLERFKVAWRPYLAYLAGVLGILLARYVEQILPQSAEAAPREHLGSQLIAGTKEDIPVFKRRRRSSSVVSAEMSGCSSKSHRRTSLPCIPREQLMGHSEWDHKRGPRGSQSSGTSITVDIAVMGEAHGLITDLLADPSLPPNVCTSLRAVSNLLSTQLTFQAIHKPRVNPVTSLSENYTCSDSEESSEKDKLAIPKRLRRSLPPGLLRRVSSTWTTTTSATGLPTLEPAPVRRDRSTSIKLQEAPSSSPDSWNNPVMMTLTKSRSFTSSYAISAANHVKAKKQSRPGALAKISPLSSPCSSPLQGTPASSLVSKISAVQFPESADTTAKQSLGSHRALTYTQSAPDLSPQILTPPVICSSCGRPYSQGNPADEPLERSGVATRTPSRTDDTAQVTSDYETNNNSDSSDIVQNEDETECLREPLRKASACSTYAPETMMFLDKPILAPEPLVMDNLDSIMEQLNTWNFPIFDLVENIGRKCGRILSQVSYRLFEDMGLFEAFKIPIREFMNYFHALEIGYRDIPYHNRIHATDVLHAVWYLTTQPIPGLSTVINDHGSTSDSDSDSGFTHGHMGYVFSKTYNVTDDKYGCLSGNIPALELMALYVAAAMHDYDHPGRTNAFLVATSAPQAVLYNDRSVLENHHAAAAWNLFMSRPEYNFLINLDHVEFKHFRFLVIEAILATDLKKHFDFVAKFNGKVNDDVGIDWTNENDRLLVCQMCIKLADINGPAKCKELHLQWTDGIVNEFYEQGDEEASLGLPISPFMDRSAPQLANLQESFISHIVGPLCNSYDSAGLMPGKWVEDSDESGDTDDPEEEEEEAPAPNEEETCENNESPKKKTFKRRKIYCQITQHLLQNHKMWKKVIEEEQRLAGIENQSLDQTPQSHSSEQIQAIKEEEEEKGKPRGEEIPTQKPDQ
smiles,measurement,setting,value
"Cn1cc([S+](C)[O-])c(=O)c2ccc(F)cc21 (racemic) [Flosequinan, 7-fluoro-1-methyl-3-(methylsulphinyl)-4(1H)-quinolone]",solubility,[1],water soluble and is soluble in many organic solvents
same,% Inhibition of PDE1,[2],31%
same,time of peak plasma concentrations of flosequinan,[3]; following oral administration,1 to 2 h
same,time of peak metabolite plasma levels,[3]; following oral dosage of flosequinan,about seven
same,mean absolute bioavailability,"[3]; oral, single dose of fifty milligrams",72%
same,times more compound on a molar basis than Viagra for around 50% inhibition of PDE6,[4],more than 300 times
"Cn1cc([S+](C)[O-])c(=O)c2ccc(F)cc21 (single isomer, unassigned; (-)) [(−)-flosequinan]",% Inhibition of PDE1,[2],11%
Cn1cc([S@@+](C)[O-])c(=O)c2ccc(F)cc21 [(+)-flosequinan],PDE1 inhibitory activity compared with the (−) enantiomer of flosequinan,[2],more PDE1 and PDE3 inhibitory activity
same,% Inhibition of PDE1,[2],28%
same,PDE3 inhibitory activity compared with the (−) enantiomer of flosequinan,[5],more PDE1 and PDE3 inhibitory activity
"O=C1CCc2cc(OCCCCc3nnnn3C3CCCCC3)ccc2N1 [cilostazol, 6-[4-(1-cyclohexyl-1H-tetrazol-5-yl)butoxy]-3,4-dihydro-2(1H)-quinolinone]",time of peak plasma concentrations of cilostazol,[6],2 to 4 h
